Source: ChEMBL document CHEMBL4673211, “A new Chlorin formulation promotes efficient photodynamic action in choriocapillaris of rabbit's eyes” (Bioorg Med Chem Lett, 2018)
Activity calls are given as the source filed them. No cut-off for these calls is given here.

Experiments:
[1] = Toxicity in New Zealand rabbit assessed as effect on hepatic profile pretreated with compound at 6 mg/m2, iv followed by diode laser irradiation at 650 nm measured after 24 hrs by fluorescein angiogram; assay type: organism-based, Oryctolagus cuniculus; conditions: in vivo, 0.65 µM, dose 6 mg/m2, time 24 hrs
[2] = Toxicity in New Zealand rabbit assessed as effect on renal profile pretreated with compound at 6 mg/m2, iv followed by diode laser irradiation at 650 nm measured after 24 hrs by fluorescein angiogram; assay type: organism-based, Oryctolagus cuniculus; conditions: in vivo, 0.65 µM, dose 6 mg/m2, time 24 hrs
[3] = Toxicity in New Zealand rabbit assessed as retinal damage in left eye pretreated with compound at 6 mg/m2, iv followed by diode laser irradiation at 650 nm measured after 24 hrs by fluorescein angiogram; assay type: organism-based, Oryctolagus cuniculus; conditions: in vivo, 0.65 µM, dose 6 mg/m2, time 24 hrs
Oryctolagus cuniculus [4] = assay: Photodynamic activity in New Zealand rabbit assessed as outer blood-retinal barrier breakdown causing hyper-fluorescence in left eye pretreated with compound at 6 mg/m2, iv followed by diode laser irradiation at 650 nm measured after 24 hrs by fluorescein angiogram; assay type: functional, organism-based; conditions: dose 6.0 mg/m2, time 24.0 hrs
Oryctolagus cuniculus [5] = assay: Photodynamic activity in New Zealand rabbit assessed as vascular occlusion causing hypo-fluorescent lesion in left eye pretreated with compound at 6 mg/m2, iv followed by diode laser irradiation at 650 nm measured after 24 hrs by fluorescein angiogram; assay type: functional, organism-based; conditions: dose 6.0 mg/m2, time 24.0 hrs
Oryctolagus cuniculus [6] = assay: Photodynamic activity in New Zealand rabbit assessed as blood flow obstruction causing hypo-fluorescent lesion in left eye pretreated with compound at 6 mg/m2, iv followed by diode laser irradiation at 650 nm measured after 24 hrs by fluorescein angiogram; assay type: functional, organism-based; conditions: dose 6.0 mg/m2, time 24.0 hrs
Oryctolagus cuniculus [7] = assay: Photodynamic activity in New Zealand rabbit assessed as appearance of pallor area of one qaurter-diameter disc shaped in left eye pretreated with compound at 6 mg/m2, iv followed by diode laser irradiation at 650 nm measured after 24 hrs by retinography; assay type: functional, organism-based; conditions: dose 6.0 mg/m2, time 24.0 hrs
Oryctolagus cuniculus [8] = assay: Photodynamic activity in New Zealand rabbit assessed as induction of choriocapillaris occlusion in left eye pretreated with compound at 6 mg/m2, iv followed by diode laser irradiation at 650 nm by indirect ophthalmoscopy; assay type: functional, organism-based
[9] = Induction of singlet oxygen generation in 9:1 acetonitrile/water mixture assessed as singlet oxygen quantum yield irradiated with 532 nanometer laser light; assay type: functional
[10] = Induction of singlet oxygen generation assessed as singlet oxygen quantum yield using liposome formulated compound; assay type: functional
[11] = Photoactivity of the compound
[12] = Aggregation property of the compound in toluene at 130 degreeC under inert atmosphere; assay type: physicochemical

Row | Compound | Activity [1] | Activity [2] | Activity [3] | Activity (Oryctolagus cuniculus [4]) | Activity (Oryctolagus cuniculus [5]) | Activity (Oryctolagus cuniculus [6]) | Activity (Oryctolagus cuniculus [7]) | Activity (Oryctolagus cuniculus [8]) | Activity [9] | Activity [10] | Activity [11] | Activity [12]
1 | C=Cc1c(C)c2cc3nc(cc4[nH]c(cc5nc(cc1[nH]2)[C@@]1(C)C5=CC[C@H]2C(=O)N(c5ccc([N+](=O)[O-])cc5)C(=O)[C@H]21)c(C)c4CCC(=O)OC)C(CCC(=O)OC)=C3C | Non-Toxic | Non-Toxic | Non-Toxic | Active | Active | Active | Active | Active | 0.6 | 0.5 | Active | Not Active
2 | C=CC1=C(C)c2cc3[nH]c(cc4nc(cc5[nH]c(cc1n2)c(C)c5CCC(=O)OC)C(CCC(=O)OC)=C4C)[C@@]1(C)C3=CCC2C(=O)N(c3ccc([N+](=O)[O-])cc3)C(=O)C21 (some centres undefined) | Non-Toxic | Non-Toxic | Non-Toxic | Active | Active | Active | Active | Active | 0.6 | 0.5 | Active | Not Active
